One may read the NOAEL as the highest tested level that showed no adverse finding. The LOAEL is the lowest tested level that showed an adverse finding.

For data set [1], the system named is Rattus norvegicus. To be noted: oral.
Data set [2] relates to Rattus norvegicus.
Data set [3] relates to Rattus norvegicus. To be noted: M/F.
Setting [4] is: subchronic, gavage, M, Sprague-Dawley, Clinical Observation: Salivation + Hematology: NEUT increase + Histopathology: Forestomach-Erosion Forestomach-Cellular infiltration, ….
Setting [5] is: short-term, duration: 28 days, gavage, M, Sprague-Dawley, Clinical Observation: Reddish urine Soft stool DiarrheaSpontaneous locomotion decrease, Incomplete eyelid opening + Functional Observational….
Setting [6] is: short-term, duration: 28 days, gavage, F, Wistar, Deaths + Clinical Observation: Thinly haired areas of skin Weakness Thin appearance Respiratory disorders Some resistance to dosing + Body ….
The mark [7] stands for this setting: short-term, duration: 28 days, gavage, M, Wistar, Deaths + Clinical Observation: Thinly haired areas of skin Weakness Thin appearance Respiratory disorders Some resistance to dosing + Body ….
Where [8] appears, read: subchronic, gavage, M, Sprague-Dawley, Urinalysis: Round epithelial cell increase + Hematology: RBC decrease, HGB decrease, HCT decrease, RET increase, R + Blood Chemistry: a2-….
The mark [9] stands for this setting: short-term, duration: 28 days, gavage, M, Sprague-Dawley, Clinical Observation: Salivation Dark green urinelocomotor activity decrease, Staining around nose and mouth + Functional Observational ….
The mark [10] stands for this setting: subchronic, gavage, M, Sprague-Dawley, Clinical Observation: Respiratory noise Irregular respiration Deep respiration R Soiled perigenital region R Oligo-stool R Hypothermia R + ….

For the molecule `O=P([O-])(O)CN(CCN(CCN(CP(=O)(O)O)CP(=O)(O)O)CP(=O)(O)O)CP(=O)(O)O.[Na+]`, in the data set on Rattus norvegicus [1] (subchronic, duration: 90 days, diet, M/F, Wistar, Hematology: RBC increase, MCV decrease, MCH decrease, HGB decrease, MCHC decrease + Absolute Organ Weight: Liver decrease), the NOAEL amounted to 96 mg/kg-day.
For the molecule `Clc1ccc(OCCOCc2ccc(COCCOc3ccc(Cl)cc3)cc2)cc1`, the NOEL in the data set on Rattus norvegicus [1] (short-term, duration: 28 days, gavage, M/F, Body Weight Changes: Body weight gain decrease + Food Consumption: decrease + Blood Chemistry: ALB increase, A/G increase + Organ Weight: …) is 8 mg/kg-day.
In the data set on Rattus norvegicus [1] (short-term, duration: 28 days, gavage, M/F, Hematology: MET-HGB increase, RET increase, RBC decrease, HGB decrease, MCHC decrease, MCV increase, PCV decrease, MCH increase, HEINZ …), `NC1=CC(=O)C(N=Nc2ccc(Nc3ccc(N=Nc4c(S(=O)(=O)[O-])cc5c(c4N)C(=O)C(N=Nc4ccccc4)C(S(=O)(=O)[O-])=C5)cc3S(=O)(=O)[O-])cc2)C=C1.[Na+].[Na+].[Na+]` (stereo not drawn) showed an NOEL of less than 50 mg/kg-day.
With `CC(=O)Nc1cc(Nc2nc(Nc3ccc(N=Nc4cccc(S(=O)(=O)[O-])c4)c(NC(C)=O)c3)nc(N3CCOCC3)n2)ccc1N=Nc1cccc(S(=O)(=O)[O-])c1.[Na+].[Na+]`, the NOEL in the data set on Rattus norvegicus [1] (short-term, duration: 28 days, gavage, M/F, Urinalysis: Bil increase + Blood Chemistry: T-Bil increase, UA increase) was 200 mg/kg-day.
Regarding `CC(C)(c1ccc(O)cc1)c1ccc(C(C)(c2ccc(O)cc2)c2ccc(O)cc2)cc1`, the NOEL in the data set with Rattus norvegicus [1] (short-term, duration: 28 days, gavage, M/F, Crj:CD, Hematology: Plt increase + Blood Chemistry: GPT increase, TG increase, Cho increase, TP decrease, LH decrease, , FSH decrease, Estradiol …) came to 300 mg/kg-day.
`CCCCCCCCOC(=O)CCc1cc(-n2nc3ccccc3n2)c(O)c(C(C)(C)C)c1`: in the data set with Rattus norvegicus [1] (short-term, duration: 28 days, gavage, M/F, Body Weight Changes: Body weight gain decrease + Hematology: PT increase + Blood Chemistry: GOT increase, GPT increase, T-CHO increase, TG …), the NOEL came to 2 mg/kg-day.
`CCN1CCc2c3n(c4ccccc24)C(C(=O)OC)=CCC31.Cl` (stereo not drawn): in the data set with Rattus norvegicus [1] (chronic, duration: 91 days, gavage, M/F, CD, Clinical Observation: Salivation Greenish urine + Urinalysis: Greenish, or Dark green urine Quarry placoid crystal Urinary cast Volume …), the NOEL was 50 mg/kg-day.
Consider `CC1=C(C)C(=O)C(C(CCCCCC(=O)O)c2ccccc2)=C(C)C1=O` (racemic), for which the NOAEL in the data set with Rattus norvegicus [1] (subchronic, duration: 13 weeks, gavage, M/F, Fischer 344, Body Weight Changes: decrease + Food Consumption: decrease + Hematology: RBC decrease, HCT decrease, HGB decrease, MCV increase, MCH …) stood at 20 mg/kg-day.
For `C[Si](O[Si](C)(C)C)O[Si](C)(C)C` [1,1,1,3,5,5,5-Heptamethyltrisiloxane], the no observed adverse effect level (NOAEL) in the data set with Rattus norvegicus [1] (subchronic, duration: 35 days, gavage, M, Wistar, Clinical Observation: Salivation / No description about sex and dosages Pushing the head through the bedding material / No description …) was 50 mg/kg-day.
Turning to `CN1CCN(C)C1=O` [1,3-Dimethyl-2-imidazolidinone], the NOEL with Rattus norvegicus [1] (subchronic, gavage, M, Sprague-Dawley, Body Weight Changes: Gain decrease(trend) + Blood Chemistry: TG increase, T-Cho increase(trend)TP decrease, R a1-glb decrease, R beta-glb …) is 20 mg/kg-day.
Regarding `C1CCC2=NCCCN2CC1` [1,8-Diazabicyclo[5.4.0]undec-7-ene], in the data set on Rattus norvegicus [1] (setting [4]), the NOAEL was 30 mg/kg-day and the NOEL came out at 10 mg/kg-day.
Regarding `Nc1c(Br)cc(Br)c2c1C(=O)c1ccccc1C2=O` [1-Amino-2,4-dibromoanthraquinone], the no observed adverse effect level (NOAEL) with Rattus norvegicus [1] (setting [5]) was less than 200 mg/kg-day. Also, the NOEL in the data set with Rattus norvegicus [1] (setting [5]) was less than 200 mg/kg-day; with Rattus norvegicus [1] (subchronic, duration: 13 weeks, diet, F, Fischer 344, Deaths + Clinical Observation: Lethargy Emaciation StaggeredHunched posture + Body Weight Changes: decrease + Food Consumption: decrease + …), less than 170 mg/kg-day; in the data set with Rattus norvegicus [1] (subchronic, duration: 13 weeks, diet, M/F, Fischer 344, Deaths + Clinical Observation: Lethargy Emaciation StaggeredHunched posture + Body Weight Changes: decrease + Food Consumption: decrease + …), less than 240 mg/kg-day.
For the molecule `CC(O)CCl` (stereo not drawn) [1-Chloro-2-propanol], the NOEL with Rattus norvegicus [1] (chronic, duration: 14 weeks, water, M/F, Fischer 344, Body Weight Changes: decrease + Water Consumption: decrease + Urinalysis: Urine volume decrease, Specific gravity increase, Total protein …) is less than 7.36 mg/kg-day.
Consider `CCCCCCCCCCCCCCCCO` [1-Hexadecanol], for which the NOAEL in the data set with Rattus norvegicus [1] (setting [6]) was determined as 300 mg/kg-day; in the data set on Rattus norvegicus [1] (setting [7]), 300 mg/kg-day; in the data set on Rattus norvegicus [1] (short-term, duration: 28 days, gavage, Sprague-Dawley), 1000 mg/kg-day; in the data set on Rattus norvegicus [1] (subchronic, duration: 13 weeks, diet, F, Crl, Body Weight Changes: decrease2064 + Food Consumption: decrease2064 + Absolute Organ Weight: Brain2064 Heart LiverSpleen Gonad + Relative …) it was 875 mg/kg-day; in the data set on Rattus norvegicus [1] (subchronic, duration: 13 weeks, diet, M, Crl, Body Weight Changes: decrease2064 + Food Consumption: decrease2064 + Absolute Organ Weight: Brain2064 Heart LiverSpleen Gonad + Relative …), 723 mg/kg-day. Besides, the NOEL came out at 300 mg/kg-day in the data set with Rattus norvegicus [1] (setting [6]) and 100 mg/kg-day in the data set with Rattus norvegicus [1] (setting [7]).
On to `C=CC/C=C/C/C=C/C/C=C/C` [1-Propene, tetramer], for which, in the data set with Rattus norvegicus [1] (setting [8]), the NOAEL was 40 mg/kg-day and the NOEL was less than 40 mg/kg-day.
Regarding `C=CCCCCCCCCCCCC` [1-Tetradecene], the no-observed-adverse-effect level (NOAEL) in the data set on Rattus norvegicus [1] (subchronic, gavage, M, Sprague-Dawley, Absolute Organ Weight: Liver increase + Relative Organ Weight: Liver increase + Histopathology: Liver-Hepatocyte cytoplasmic vacuolation) worked out at 100 mg/kg-day.
Consider `Brc1ccc(Oc2cc(Br)c(Br)cc2Br)c(Br)c1` [2,2',4,4',5-Pentabromodiphenyl ether], for which the LOAEL in the data set on Rattus norvegicus [2] (developmental, duration: 1 days, oral, gavage, M/F, Wistar, developmental) was 0.06 mg/kg-day. For the same molecule, the LOEL in the data set with Rattus norvegicus [3] (developmental, injection, intraperitoneal, Wistar, generation: F1, F1: Y maze) came out at 30 mg/kg-day; in the data set on Rattus norvegicus [3] (reproduction developmental, oral, gavage, Crl:CD(SD), generation: P0, P0: Morris water maze (latency, significant trial)), 2 mg/kg-day.
As to `Cc1cc(C)c(C)c(O)c1` [2,3,5-Trimethylphenol], the NOEL in the data set with Rattus norvegicus [1] (subchronic, gavage, M, Sprague-Dawley, Clinical Observation: Soiled perigenitalia of urine LethargyAtaxia gait(transient after administration) + Body Weight Changes: decrease(…) came to 100 mg/kg-day.
For `Cl.Cl.Nc1ccc(O)c(N)c1` [2,4-Diaminophenol dihydrochloride], in the data set on Rattus norvegicus [1] (setting [9]), the NOAEL was 50 mg/kg-day and the NOEL is less than 50 mg/kg-day. Besides, the NOEL with Rattus norvegicus [1] (subchronic, duration: 13 weeks, gavage, M/F, Fischer 344, Deaths + Body Weight Changes: decrease>50 + Absolute Organ Weight: Liver increase, Thymus decrease + Relative Organ Weight: Right kidney …) was less than 12 mg/kg-day.
For `Cc1ccc(S(=O)(=O)O)c(C)c1` [2,4-Dimethylbenzenesulfonic acid], in the data set with Rattus norvegicus [1] (setting [10]), the LOEL came out at 500 mg/kg-day and the NOEL stood at 100 mg/kg-day.
On to `CC(C)=CC=C(C)C` [2,5-Dimethyl-2,4-hexadiene], for which the NOEL in the data set on Rattus norvegicus [1] (subchronic, gavage, M, Sprague-Dawley, Clinical Observation: Soiled peri-genital + Body Weight Changes: decrease + Food Consumption: decrease(day1-8) + Hematology: WBC increase, …) was less than 100 mg/kg-day.
Consider `C#CC(C)(C)O` [2-Methyl-3-butyn-2-ol], for which the NOAEL in the data set on Rattus norvegicus [1] (short-term, duration: 28 days, gavage, M/F, BOB:WISW, Deaths + Clinical Observation: Sedation Narcosis Hypothermia + Body Weight Changes: decrease + Food Consumption: decrease + Hematology: WBC …) was 50 mg/kg-day.
Regarding `Sc1ccc2ccccc2c1` [2-Naphthalenethiol], the NOEL with Rattus norvegicus [1] (short-term, duration: 28 days, gavage, M/F, Sprague-Dawley, Functional Observational Battery: Landing foot splay decrease + Food Consumption: decrease + Water Consumption: increase + Urinalysis: …) was 8 mg/kg-day.
Regarding `Cc1cccc(C(C)(C)C)c1O` [2-tert-Butyl-6-methylphenol], the NOEL in the data set on Rattus norvegicus [1] (subchronic, gavage, M, Sprague-Dawley, Hematology: Ret increase, PT increase, APTT increase + Blood Chemistry: GOT increase, GPT increasegamma-GTP increase, Cho increase + …) turned out to be 8 mg/kg-day.
On to `BrC(Br)c1ccccc1OCC1CO1` (stereo not drawn) [2-{[2-(Dibromomethyl)phenoxy]methyl}oxirane], for which, in the data set with Rattus norvegicus [1] (subchronic, gavage, M, Sprague-Dawley, Clinical Observation: Salivation (transient) + Absolute Organ Weight: Kidney increase + Relative Organ Weight: Kidney increase + …), the NOEL turned out to be 8 mg/kg-day.
Regarding `Clc1ccc(N=Nc2ccc(Cl)c(Cl)c2)cc1Cl` [3,3',4,4'-Tetrachloroazobenzene], in the data set with Rattus norvegicus [1] (subchronic, gavage, M/F, Fischer 344, Body Weight Changes: decrease + Hematology: Ret increase Hct decrease, Hgb decrease, RBC decrease, Plt decrease, WBC decrease, Seg decrease…), the NOEL is less than 0.1 mg/kg-day.
As to `[O-][N+](=Nc1ccc(Cl)c(Cl)c1)c1ccc(Cl)c(Cl)c1` [3,3',4,4'-Tetrachloroazoxybenzene], in the data set on Rattus norvegicus [1] (subchronic, gavage, M/F, Fischer 344, Deaths + Body Weight Changes: decrease af>>>10 + Hematology: Plt decrease Hct decrease, Hgb decrease, RBC decrease Ret increase, WBC …), the NOEL was less than 0.1 mg/kg-day.
In the case of `COCC(CCC(C)C)(COC)C(C)C` [3,3-Bis(methoxymethyl)-2,6-dimethylheptane], the NOEL in the data set on Rattus norvegicus [1] (short-term, duration: 28 days, gavage, M/F, Clinical Observation: Salivation + Blood Chemistry: BIL increase, CL decrease + Absolute Organ Weight: Liver increase + Relative Organ …) worked out at 8 mg/kg-day.
Regarding `CC(O[Si](C)(C)C(C)(C)C)C1CNC1=O` (stereo not drawn) [3-(1-{[tert-Butyl(dimethyl)silyl]oxy}ethyl)azetidin-2-one], in the data set with Rattus norvegicus [1] (short-term, duration: 28 days, gavage, M/F, Clinical Observation: Salivation + Blood Chemistry: TP increase, T-CHO increase, TG increase, Glu decrease, Ca increase + Organ Weight: …), the NOEL was found to be 8 mg/kg-day.
On to `Nc1cc(OCCOc2ccccc2)n[nH]1` [3-(2-Phenoxyethoxy)-1H-pyrazol-5-amine], for which, in the data set on Rattus norvegicus [1] (short-term, duration: 28 days, gavage, M/F, Deaths + Clinical Observation: Salivation Locomotor activity decrease, Sedation Urinary incontinence + Body Weight Changes: Body weight …), the NOEL worked out at 40 mg/kg-day.
Turning to `[Cd]` [Cadmium], in the data set with Rattus norvegicus [2] (short-term, duration: 2 weeks, inhalation, M/F, Fischer 344, respiratory), the LOAEL worked out at 0.088 mg/m3.
Consider `CCN(CC)C(=O)c1cccc(C)c1` [DEET], for which the no-observed-adverse-effect level (NOAEL) in the data set with Rattus norvegicus [2] (developmental, duration: 364 days, oral, diet, M/F, Sprague-Dawley, developmental) stood at 100 mg/kg-day.
As for `O=CCCCC=O` [Glutaraldehyde], the NOAEL in the data set on Rattus norvegicus [2] (acute, duration: 1 days, inhalation, M/F, Fischer 344, respiratory) was 0.512 mg/m3; in the data set on Rattus norvegicus [2] (chronic, duration: 2 years, oral, drinking water, M/F, Fischer 344, gastrointestinal) it was 4 mg/kg-day.
Regarding `[Cl][Ti]([Cl])([Cl])[Cl]` [Titanium tetrachloride], the LOAEL was 0.1 mg/m3 in the data set with Rattus norvegicus [2] (chronic, duration: 104 weeks, inhalation, M/F, Crl:CD(SD), respiratory) and 5 mg/m3 with Rattus norvegicus [2] (short-term, duration: 4 weeks, inhalation, M, Crl:CD(SD), respiratory).
In turn, `ClCOCCl` [bis(Chloromethyl) ether] yielded an NOAEL with Rattus norvegicus [2] (chronic, duration: 6 months, inhalation, M, Sprague-Dawley, respiratory) of 0.47 mg/m3.

The record behind these values is EPA's ToxValDB 9.5.
